From US20170038686A1, “ANTHRAQUINONE COMPOUND USED FOR COLOR FILTER OF LCD” (Rohm and Haas Electronic Materials LLC, priority 2014, published 2017)

Experiments:
Assay type in all cases: physicochemical
[1] = Thermal stability of films (chromaticity difference ΔEab before/after hard baking); details: for ΔEab after baking at 230° C. for another 1 h: film further baked at 230° C. under air for another 1 h; for ΔEab after baking at 230° C. for 1 h: film with alkaline soluble acrylic resin, hard bake 230° C. under air 1 h
Description: For Inventive Example 1, 0.15 g of Dye 1, 1.35 g of PGMEA and 1 g of alkaline soluble acrylic resin solution (MIPHOTO RPR4022, supplied from Miwan Commercial Co., Ltd., 25 to 35% of solid content in methyl 3-methoxypropionate) were mixed and stirred for 2 hours at room temperature using a shaker. For Inventive Example 2, 0.15 g of a mixture of Dye land Dye 2 was used instead of Dye 1. The solutions were filtered with a 0.45 μm PTFE filter to get rid of big particles. Then the filtered solutions were spin coated onto a clean glass substrate with 200 and 270 rpm spin speed for 18 seconds respectively. The obtained films were first dried at 90° C. under air atmosphere for 30 minutes, and then hard baked at 230° C. under air atmosphere for 1 hour. The CIE values (xyY values and lab values) and the UV-Vis were measured before and after the hard bake.
The obtained dry films were further baked at 230° C. under air for 1 hour to evaluate thermal stability of the films. Optical performance after baking (AEab value) were 2.3 (Inventive Example 1) and 1.8 (Inventive Example 2), and the one of after further baking were 3.0 (Inventive Example 1) and 2.7 (Inventive Example 2). A smaller AEab value indicates better heat resistance.
(§1) <Performance Evaluation> • (1) Thermal stability of dyes (Mass loss measured by TGA): • The thermal stability of dye itself was determined by the mass loss of dye measured by TGA under air atmosphere at 230° C. for 1 hour. This evaluation reflects chemical stability of the dye itself. • (2) Film thickness: • Film thickness is measured by scanning the difference in height across the boundary of film and glass substrate with atomic force microscope. • (3) Chromaticity coordinates: • The chromaticity coordinate of film on a glass sheet is directly recorded with UltraScan Pro (Hunterlab) colorimeter. The light source is D65/10. • (4) Thermal stability of films (Chromaticity): • The wet film after spin coating is dried in oven at 90° C. for 30 minutes and then soft baked at 150° C. for 15 minutes. The chromaticity coordinates (L, a, b) are recorded with UltraScan Pro (Hunterlab) colorimeter. D65/10 light source is used and results are based on CIE Lab coordinates. After that the film is hard baked at target temperature (230° C.) for 1 hour and the new chromaticity coordinates (L′, a′, b′) are recorded with the method above. The thermal stability of a film is indicated by the difference of chromaticity coordinate before and after hard baking represented by the following formula;
ΔE=√{square root over ((L−L′)^2+(a−a′)^2+(b−b′)^2)}

[2] = Solubility of dye in PGMEA; details: solvent PGMEA
[3] = Thermal stability of dyes (mass loss measured by TGA); details: 230° C. for 1 hour, air atmosphere
Description: as §1

| ΔEab after baking at 230° C. for another 1 h [1] | ΔEab after baking at 230° C. for 1 h [1] | Solubility in PGMEA [2] | Mass loss by TGA after baking [3] | SMILES |
| --- | --- | --- | --- | --- |
| 6.0 | 6.8 | 2.8 wt % |  | Cc1cc(C)c(Nc2ccc(Nc3c(C)cc(O)cc3C)c3c2C(=O)c2ccccc2C3=O)c(C)c1 [(1-((4-hydroxy-2,6-dimethylphenyl)amino)-4-(mesitylamino)-anthraquinone] |
| 3.0 | 2.3 | 11.2 wt % | 2 wt. % | Cc1cc(C)c(Nc2ccc(Nc3c(C)cc(OCC(O)COc4ccc(C(C)(C)c5ccc(OCC(O)COc6cc(C)c(Nc7ccc(Nc8c(C)cc(C)cc8C)c8c7C(=O)c7ccccc7C8=O)c(C)c6)cc5)cc4)cc3C)c3c2C(=O)c2ccccc2C3=O)c(C)c1 (stereo not drawn) [Dye 1] |
|  | 33 (color | 1.92 wt % |  | CC(C)Nc1ccc(NC(C)C)c2c1C(=O)c1ccccc1C2=O [Solvent Blue 36] |
| 6.1 | 7.9 | 0.6 wt % |  | Cc1cc(C)c(Nc2ccc(Nc3c(C)cc(C)cc3C)c3c2C(=O)c2ccccc2C3=O)c(C)c1 [Solvent Blue 104, 1,4-bis(mesitylamino)anthraquinone] |
